Source: patent US9486544B2, “Manganese chelates and their use as contrast agents in magnetic resonance imaging (MRI)” (GE Healthcare AS, priority 2009, dated 2016)
Like-named read-outs stand apart in the source and are kept apart here.

How the values were obtained:
Type in all cases: physicochemical
[1] = Kinetic stability: exchange reaction with Zn2+ in acetate buffer, monitored by relaxivity; conditions: acetate buffer with Zn2+ challenge, acetate buffer 10 mM, 25° C., chelate approx. 0.5 mM, read-out: Dissociation Half life t1/2
Method: The kinetic stability of manganous chelates was characterized by the rates of exchange reaction with Zn^2+, in acetate buffer (10 mM) set to various pH. The increase of free manganous ions was monitored using a Bruker Minispec PC 120b-NA 770, at 20 MHz and 25° C. The total ionic strength was adjusted to 0.5M with KCl. The chelate concentration was approximately 0.5 mM for all measurements.
The change in concentration of chelated manganese, upon challenge with zinc ions, was monitored spectroscopically. When zinc displaces a manganous ion a net increase in relaxivity was observed as the free manganous ion has a relaxivity of ˜10 mM^−1s^−1, whereas the studied manganese chelates have a lower relaxivity.
The pseudo first-order rate constants (kobs) were calculated by fitting the relaxivity data to the following equation: […] in which At, A0, and Ae are the relaxivity values at time t, the start of the reaction, and at equilibrium, respectively. The dissociation half life was derived from kobs.

[2] = Relaxivity analysis in water; conditions: degassed Millipore water, 0.05 to 1 mM complex
Method: (§1) The relaxivity measurements were performed with a range of 0.05 to 1 mM complex solutions on a Bruker Minispec PC 120b-NA 770, at 20 MHz or a Bruker Minispec Mq 60m at 60 MHz and 37° C. The solutions were obtained by dissolving the appropriate amount of chelate in degassed Millipore water or human serum.

[3] = Relaxivity analysis in human serum; conditions: 0.05 to 1 mM complex
Method: as §1

[4] = Water exchange measurements (variable-temperature 17O NMR); conditions: TRIS 0.05 M pH 7.4, 6 to 15 mM complex
Method: Water Exchange Measurements
The water exchange measurements were performed with 6 to 15 mM complex solutions. The solutions were obtained by dissolving the appropriate amount of complex in 0.6 mL of buffer solution (TRIS, 0.05 M, pH 7.4 in degassed Millipore water at ca. 3 atom % ^17O-enrichment); Variable-temperature Fourier transform ^17O NMR spectra were recorded at a frequency of 40.7 MHz on a Varian Unity 300 MHz spectrometer. The temperatures were measured using methanol and ethylene glycol standards. The temperature dependence of the ^17O line broadening for each system was measured over a temperature range from 273.7 to 356.1 K. Each temperature was calibrated using a methanol or ethylene glycol standard.

Question: Which half-life at 0.5 mM ([1]; pH 4.6, pH 4.6, [Zn] 10 mM) does the source give for O=C1CN2CCNCCN(CC(=O)[O][Mn][O]1)Cc1cccc(n1)C2 [Compound disclosed in US5334371, reference compound] here?
Answer: 3 min

Question: And the half-life at 0.5 mM ([1]; pH 5, pH 5.0, [Zn] 10 mM)?
Answer: 6 min

Question: And the half-life at 0.5 mM ([1]; pH 5.2, pH 5.2, [Zn] 10 mM)?
Answer: 9 min

Question: And the half-life at 0.5 mM ([1]; pH 5.2, pH 5.2, [Zn] 20 mM)?
Answer: 10 min

Question: What about the half-life at 0.5 mM ([1]; pH 5.4, pH 5.4, [Zn] 10 mM) of the same compound?
Answer: 15 min

Question: And the half-life at 0.5 mM ([1]; pH 5.6, pH 5.6, [Zn] 10 mM)?
Answer: 22 min

Question: And the half-life at 0.5 mM ([1]; pH 5.6, pH 5.6, [Zn] 20 mM)?
Answer: 23 min

Question: Which “Relaxivity Water @ 20 MHz, 37° C.” value [2] does the source give for O=C(O)CN1CCN2CC(=O)[O][Mn][O]C(=O)CN(CC1)Cc1cccc(n1)C2 [Compound disclosed in US5334371, reference compound] here?
Answer: 1.3 mM⁻¹ s⁻¹

Question: With CN1CCN2CC(=O)[O][Mn][O]C(=O)CN(CC1)Cc1cc(NC(=O)c3cc(C(=O)Nc4cc5nc(c4)CN4CCN(C)CCN(CC(=O)[O][Mn][O]C(=O)C4)C5)cc(C(=O)Nc4cc5nc(c4)CN4CCN(C)CCN(CC(=O)[O][Mn][O]C(=O)C4)C5)c3)cc(n1)C2 [Example 2, manganese(II) complex of N1,N3,N5-tris[3,6,9,15-tetraaza-3,9-bis-(carbonylmethyl)-6-methyl-bicyclo[9.3.1]pentadeca-13-trienyl]benzene-1,3,5-tricarboxamide] as the compound, how does the “Relaxivity Water @ 20 MHz, 37° C.” value [2] read?
Answer: 3.8 mM⁻¹ s⁻¹

Question: And the “Relaxivity Human Serum @ 60 MHz, 37° C.” value [3]?
Answer: 10.5 mM⁻¹ s⁻¹

Question: What about the Water residence time [4] of the same compound?
Answer: 14 ns

Question: Which “Relaxivity Water @ 20 MHz, 37° C.” value [2] does the source give for CN1CCN2CC(=O)[O][Mn][O]C(=O)CN(CC1)Cc1cccc(n1)C2 [Example 1, manganese(II) complex of 3,6,9,15-tetraaza-3,9-bis-(carboxymethyl)-6-methyl-bicyclo[9.3.1]pentadeca-1(14),11(15),12-triene] here?
Answer: 2.4 mM⁻¹ s⁻¹

Question: And the “Relaxivity Human Serum @ 60 MHz, 37° C.” value [3]?
Answer: 4.6 mM⁻¹ s⁻¹

Question: And the Water residence time [4]?
Answer: 16 ns

Question: And the half-life at 0.5 mM ([1]; pH 4.6, pH 4.6, [Zn] 10 mM)?
Answer: 10 min

Question: What about the half-life at 0.5 mM ([1]; pH 5, pH 5.0, [Zn] 10 mM) of the same compound?
Answer: 21 min

Question: And the half-life at 0.5 mM ([1]; pH 5.2, pH 5.2, [Zn] 10 mM)?
Answer: 30 min

Question: What about the half-life at 0.5 mM ([1]; pH 5.2, pH 5.2, [Zn] 20 mM) of the same compound?
Answer: 37 min

Question: What about the half-life at 0.5 mM ([1]; pH 5.4, pH 5.4, [Zn] 10 mM) of the same compound?
Answer: 44 min

Question: And the half-life at 0.5 mM ([1]; pH 5.6, pH 5.6, [Zn] 10 mM)?
Answer: 72 min

Question: What about the half-life at 0.5 mM ([1]; pH 5.6, pH 5.6, [Zn] 20 mM) of the same compound?
Answer: 77 min

Question: For CN1CCN2CC(=O)[O][Mn][O]C(=O)CN(CC1)Cc1cc(NC(=O)c3ccccc3)cc(n1)C2 [Example 6, manganese complex of N,13-Benzamide-3,6,9,15-tetraaza-3,9-bis-(carboxymethyl)-6-methyl-bicyclo[9.3.1]pentadeca-1(14),11(15),12-triene], which “Relaxivity Human Serum @ 60 MHz, 37° C.” value [3] is on record?
Answer: 8.8 mM⁻¹ s⁻¹
